From US20240425491A1, “HETEROARYL COMPOUNDS USEFUL IN THE TREATMENT OF COGNITIVE DISORDERS” (University College Cardiff Consultants Limited, priority 2021, published 2024)
Structures can show the parent of a compound that is named as a salt.

biological target: T1, human recombinant GABAAR containing α5β3γ2 subunits (benzodiazepine site) (Homo sapiens, UniProt P18507+P31644); assay: In vitro radioligand binding assay (α5-GABAAR Ki); details: not given
T1 construct: expressed in transfected cells; host or cells: mouse L(tk−) cells, dexamethasone-inducible vector pMSGneo
T1 sequence (P31644 32-462): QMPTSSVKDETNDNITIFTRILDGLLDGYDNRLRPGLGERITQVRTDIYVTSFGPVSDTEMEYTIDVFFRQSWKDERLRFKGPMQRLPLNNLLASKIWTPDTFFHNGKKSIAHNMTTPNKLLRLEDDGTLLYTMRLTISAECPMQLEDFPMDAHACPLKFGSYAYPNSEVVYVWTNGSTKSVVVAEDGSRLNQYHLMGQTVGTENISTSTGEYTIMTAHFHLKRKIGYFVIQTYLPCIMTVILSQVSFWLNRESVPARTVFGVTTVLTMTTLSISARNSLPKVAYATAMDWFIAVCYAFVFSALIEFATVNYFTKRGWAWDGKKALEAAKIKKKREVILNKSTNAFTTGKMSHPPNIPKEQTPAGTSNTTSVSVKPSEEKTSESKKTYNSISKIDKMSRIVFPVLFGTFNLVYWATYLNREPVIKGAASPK
T1 sequence (P28472 26-473 partner): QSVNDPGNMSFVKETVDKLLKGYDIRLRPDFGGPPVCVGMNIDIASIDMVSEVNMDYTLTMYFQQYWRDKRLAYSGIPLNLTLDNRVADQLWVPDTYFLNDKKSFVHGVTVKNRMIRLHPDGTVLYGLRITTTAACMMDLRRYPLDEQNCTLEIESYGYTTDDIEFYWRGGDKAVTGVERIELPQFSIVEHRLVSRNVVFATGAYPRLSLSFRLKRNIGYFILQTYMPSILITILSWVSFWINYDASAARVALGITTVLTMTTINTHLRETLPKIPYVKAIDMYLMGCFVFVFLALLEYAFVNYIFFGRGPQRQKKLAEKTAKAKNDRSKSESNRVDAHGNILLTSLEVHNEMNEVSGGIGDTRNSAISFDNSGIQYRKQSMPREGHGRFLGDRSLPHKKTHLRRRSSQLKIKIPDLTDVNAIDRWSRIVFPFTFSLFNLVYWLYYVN
T1 sequence (P18507 40-475): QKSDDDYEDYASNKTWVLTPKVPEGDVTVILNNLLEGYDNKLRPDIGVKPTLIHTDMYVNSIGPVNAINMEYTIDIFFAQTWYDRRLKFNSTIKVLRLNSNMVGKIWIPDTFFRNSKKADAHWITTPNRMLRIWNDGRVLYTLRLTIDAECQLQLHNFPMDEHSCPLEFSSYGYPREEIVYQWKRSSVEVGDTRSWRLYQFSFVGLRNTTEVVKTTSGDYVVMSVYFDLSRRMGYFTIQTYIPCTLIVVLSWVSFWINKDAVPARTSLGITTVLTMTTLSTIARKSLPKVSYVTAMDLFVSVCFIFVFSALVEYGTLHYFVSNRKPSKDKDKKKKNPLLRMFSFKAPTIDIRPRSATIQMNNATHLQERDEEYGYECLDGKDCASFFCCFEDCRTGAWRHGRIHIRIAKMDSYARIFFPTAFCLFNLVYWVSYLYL
Description: Mouse L(tk^−) cells stably expressing human α1β3γ2, α2β3γ2, α3β3γ2, α5β3γ2 GABAARs generated by transfection of the individual subunits in the dexamethasone-inducible expression vector pMSGneo in mouse L(tk^−) cells (Hadingham et al., 1993, Mol. Pharmacol. 43:970-975 and 1993, Mol. Pharmacol. 44:1211-1218) were used for binding and functional assays. For certain compounds, HEK293 cells stable expressing the human α1β3γ2L, α2β3γ2L, α3β3γ2L and α5β3γ2L GABAA receptors were used to evaluate their functional effects in a SyncroPatch electrophysiology assay.
L(tk^−) cells stably expressing human α1β3γ2, α2β3γ2, α3β3γ2, α5β3γ2 GABAARs were maintained in DMEM F12 medium supplemented with 10% Foetal Bovine Serum, 1% Penicillin/Streptomycin and 1 mg/mL Geneticin G418 in an incubator at 37° C. with a humidified atmosphere with 5% CO2.
The affinity (Ki) of compounds for the benzodiazepine site of human recombinant GABAARs was measured by their ability to inhibit the binding of the selective benzodiazepine antagonist [^3H] Ro15-1788 ([^3H] flumazenil).
L(tk^−) cells expressing human recombinant GABAAR containing α1β3γ2, α2β3γ2, α3β3γ2, α5β3γ2 subunits were harvested and membranes were prepared for each receptor combination in phosphate buffer (K2PO4 10 mM, pH 7.0) (Hadingham et al. (1992) Proc. Natl. Acad. Sci. USA; 89 (14): 6378-82). Protein concentration, receptor expression and the Kd of [^3H] Ro15-1788 were determined before Ki values of compounds were evaluated. For Kd evaluation, saturation binding curves were obtained by incubating membrane with various concentrations of [^3H] Ro15-1788 (82.5 Ci/mM), with nonspecific binding measured in the presence of 1 μM TP003.
For Ki evaluation, cell membranes were incubated with 4 nM [^3H] Ro15-1788 along with a range of concentrations of test compound. Nonspecific binding was determined using 1 μM TP003. All incubations were performed for 1 hour at 4° C. in assay buffer. The total assay volume was 0.5 mL, containing 100 μg membrane protein/well α1β3γ2, α2β3γ2, α3β3γ2 and 50 μg membrane protein/well for α53γ2. Incubations were terminated by filtration and washing with ice cold Tris-HCl buffer (50 mM, pH=7.4) over Whatman GF/B filters and the radioactivity of the filters was measured using liquid scintillation counting.
The % inhibition of [^3H] Ro15-1788 binding was plotted as a function of compound concentration and the IC50 calculated. From the IC50, the affinity (Ki) was calculated using the method of Cheng and Prusoff using the Kd values obtained for [^3H] Ro15-1788.

Row | Structure (SMILES) | Ki [nM]
1 | COc1cc2c(-c3ccc(NC(=O)c4c(-c5ccccc5)noc4C)c(OC)n3)cn(C)c2cn1 [Example 109, N-(2-Methoxy-6-(5-methoxy-1-methyl-1H-pyrrolo[2,3-c]pyridin-3-yl)pyridin-3-yl)-5-methyl-3-phenylisoxazole-4-carboxamide] | 47.2

same assay, conditions: inhibition of [3H]Ro15-1788 binding, membranes of L(tk−) cells expressing human α5β3γ2; read-out: α5-GABAAR Ki

Row | Structure (SMILES) | Ki [nM]
2 | COc1nc(-c2nnn(C)c2C)ccc1NC(=O)c1c(-c2ccccc2)noc1C [Example 101, N-(6-(1,5-Dimethyl-1H-1,2,3-triazol-4-yl)-2-methoxypyridin-3-yl)-5-methyl-3-phenylisoxazole-4-carboxamide] | 45.1
3 | COc1nc(-c2cn(-c3nccs3)nc2C)ccc1NC(=O)c1c(-c2ccccc2)noc1C [Example 115, N-(2-Methoxy-6-(3-methyl-1-(thiazol-2-yl)-1H-pyrazol-4-yl)pyridin-3-yl)-5-methyl-3-phenylisoxazole-4-carboxamide] | 99.8
4 | COc1nc(-c2cnc(Cl)nc2)ccc1NC(=O)c1c(-c2ccccc2)noc1C [Example 36, N-[6-(2-Chloropyrimidin-5-yl)-2-methoxy-3-pyridyl]-5-methyl-3-phenyl-isoxazole-4-carboxamide] | 2
5 | COc1cc(-c2c(C)n[nH]c2C)cnc1NC(=O)c1c(-c2ccccc2)noc1C [Example 31, N-[5-(3,5-Dimethyl-1H-pyrazol-4-yl)-3-methoxy-2-pyridyl]-5-methyl-3-phenyl-isoxazole-4-carboxamide] | 69.1
6 | COc1nc(-c2cc(OC)c3cn[nH]c3c2)ccc1NC(=O)c1c(-c2ccccc2)noc1C [Example 32, N-[2-Methoxy-6-(4-methoxy-1H-indazol-6-yl)-3-pyridyl]-5-methyl-3-phenyl-isoxazole-4-carboxamide] | 110
7 | COc1nc(-c2cccc(N(C)C)c2)ccc1NC(=O)c1c(-c2ccccc2)noc1C [Example 16, N-[6-[3-(Dimethylamino)phenyl]-2-methoxy-3-pyridyl]-5-methyl-3-phenyl-isoxazole-4-carboxamide] | 403
8 | COc1nc(-c2cccnn2)ccc1NC(=O)c1c(-c2ccccc2)noc1C [Example 64, N-(2-Methoxy-6-pyridazin-3-yl-3-pyridyl)-5-methyl-3-phenyl-isoxazole-4-carboxamide] | 21.9
9 | COc1nc(-c2ccc3c(=O)[nH]ncc3c2)ccc1NC(=O)c1c(-c2ccccc2)noc1C [Example 117, N-(2-Methoxy-6-(1-oxo-1,2-dihydrophthalazin-6-yl)pyridin-3-yl)-5-methyl-3-phenylisoxazole-4-carboxamide] | 2.6
10 | COc1nc(-c2ccc3cn[nH]c3c2)ccc1NC(=O)c1c(-c2ccccc2)noc1C [Example 34, N-[6-(1H-Indazol-6-yl)-2-methoxy-3-pyridyl]-5-methyl-3-phenyl-isoxazole-4-carboxamide] | 115
11 | COc1nc(-c2nccs2)ccc1NC(=O)c1c(-c2ccccc2)noc1C [Example 66, N-(2-Methoxy-6-thiazol-2-yl-3-pyridyl)-5-methyl-3-phenyl-isoxazole-4-carboxamide] | 236
12 | COc1nc(-c2ncccn2)ccc1NC(=O)c1c(-c2ccccc2)noc1C [Example 63, N-(2-Methoxy-6-pyrimidin-2-yl-3-pyridyl)-5-methyl-3-phenyl-isoxazole-4-carboxamide] | 32.6
13 | COc1nc(-c2cnc(N)c(OC)n2)ccc1NC(=O)c1c(-c2ccccc2)noc1C [Example 39, N-[6-(5-Amino-6-methoxy-pyrazin-2-yl)-2-methoxy-3-pyridyl]-5-methyl-3-phenyl-isoxazole-4-carboxamide] | 32.3
14 | COc1nc(-c2ccccn2)ccc1NC(=O)c1c(-c2ccccc2)noc1C [Example 73, N-[2-Methoxy-6-(2-pyridyl)-3-pyridyl]-5-methyl-3-phenyl-isoxazole-4-carboxamide] | 154
15 | COc1nc(-c2cnc3c(c2)CC(=O)N3)ccc1NC(=O)c1c(-c2ccccc2)noc1C [Example 114, N-(2-Methoxy-6-(2-oxo-2,3-dihydro-1H-pyrrolo[2,3-b]pyridin-5-yl)pyridin-3-yl)-5-methyl-3-phenylisoxazole-4-carboxamide] | 6.3
16 | COc1nc(-c2ccc(SC(F)(F)F)nc2)ccc1NC(=O)c1c(-c2ccccc2)noc1C [Example 76, N-(6-Methoxy-6′-((trifluoromethyl)thio)-[2,3′-bipyridin]-5-yl)-5-methyl-3-phenyl-isoxazole-4-carboxamide] | 297

Next, values leading:

Row | Ki [nM] | Structure (SMILES)
17 | 35.4 | COc1nc(-c2cnc(C(C)(C)O)nc2)ccc1NC(=O)c1c(-c2ccccc2)noc1C [Example 201, N-[6-[2-(1-Hydroxy-1-methyl-ethyl)pyrimidin-5-yl]-2-methoxy-3-pyridyl]-5-methyl-3-phenyl-isoxazole-4-carboxamide]
18 | 77.8 | COc1nc(-c2cnc(CN)nc2)ccc1NC(=O)c1c(-c2ccccn2)nnn1C [Example 202, N-(6-(2-(Aminomethyl)pyrimidin-5-yl)-2-methoxypyridin-3-yl)-1-methyl-4-(pyridin-2-yl)-1H-1,2,3-triazole-5-carboxamide hydrochloride]
19 | 1.2 | CNc1ncc(-c2ccc(NC(=O)c3c(-c4ccccc4)noc3C)c(OC)n2)c(C)n1 [Example 192, N-[2-Methoxy-6-[4-methyl-2-(methylamino)pyrimidin-5-yl]-3-pyridyl]-5-methyl-3-phenyl-isoxazole-4-carboxamide]
20 | 13.7 | COc1nc(-c2cnoc2)ccc1NC(=O)c1c(-c2ccc(F)cc2)noc1N1CCC1 [Example 210, 5-(Azetidin-1-yl)-3-(4-fluorophenyl)-N-(6-isoxazol-4-yl-2-methoxy-3-pyridyl) isoxazole-4-carboxamide]
21 | 137 | COc1nc(-c2cnc3[nH]ccc3c2)ccc1NC(=O)c1c(-c2ccccc2)noc1C [Example 118, N-(2-Methoxy-6-(1H-pyrrolo[2,3-b]pyridin-5-yl)pyridin-3-yl)-5-methyl-3-phenylisoxazole-4-carboxamide]
22 | 3.4 | COc1nc(-c2ccc(C=O)cc2)ccc1NC(=O)c1c(-c2ccccc2)noc1C [Example 220, N-[6-(4-formylphenyl)-2-methoxy-3-pyridyl]-5-methyl-3-phenyl-isoxazole-4-carboxamide]
23 | 45.8 | COc1nc(-c2cncnc2)ccc1NC(=O)c1c(C)nnn1-c1ccccc1 [Example 157, N-(2-Methoxy-6-(pyrimidin-5-yl)pyridin-3-yl)-4-methyl-1-phenyl-1H-1,2,3-triazole-5-carboxamide]
24 | 23.5 | COc1nc(-c2nnc3n2CCN(C)C3)ccc1NC(=O)c1c(-c2ccccc2)noc1C [Example 195, N-(2-Methoxy-6-(7-methyl-5,6,7,8-tetrahydro-[1,2,4]triazolo[4,3-a]pyrazin-3-yl)pyridin-3-yl)-5-methyl-3-phenylisoxazole-4-carboxamide]
25 | 22.9 | COc1nc(C)c(-c2ccc(NC(=O)c3c(-c4ccccc4)noc3C)c(OC)n2)c(C)n1 [Example 193, N-[2-Methoxy-6-(2-methoxy-4,6-dimethyl-pyrimidin-5-yl)-3-pyridyl]-5-methyl-3-phenyl-isoxazole-4-carboxamide]
26 | 79 | COc1nc(-n2ccnc2)ccc1NC(=O)c1c(-c2ccccn2)noc1C [Example 146, N-(6-Imidazol-1-yl-2-methoxy-3-pyridyl)-5-methyl-3-(2-pyridyl) isoxazole-4-carboxamide]
27 | 545 | CNc1nc(-n2ccnc2)ccc1NC(=O)c1c(-c2ccccc2)noc1C [Example 177, N-(6-(1H-Imidazol-1-yl)-2-(methylamino)pyridin-3-yl)-5-methyl-3-phenylisoxazole-4-carboxamide]
28 | 1.3 | COc1nc(-c2cnc(CN)nc2)ccc1NC(=O)c1c(-c2ccc(F)cc2)noc1NCCCCl [Example 211, N-[6-[2-(Aminomethyl)pyrimidin-5-yl]-2-methoxy-3-pyridyl]-5-(3-chloropropylamino)-3-(4-fluorophenyl) isoxazole-4-carboxamide hydrochloride]
29 | 3.3 | COc1nc(-c2ccc(CN3CC4(COC4)C3)cc2)ccc1NC(=O)c1c(-c2ccccc2)noc1C [Example 226, N-[2-methoxy-6-[4-(2-oxa-6-azaspiro[3.3]heptan-6-ylmethyl)phenyl]-3-pyridyl]-5-methyl-3-phenyl-isoxazole-4-carboxamide]
